In patent publication US11590117B2, “Treatment of a hematologic malignancy with 2-(4-chlorophenyl)-n-((2-(2,6-dioxopiperidin-3-yl)-1-oxoisoindolin-5-yl)methyl)-2,2-difluoroacetamide” (priority 2016, dated 2023):
Read-outs that look alike come from different tables or passages of the source.

What was measured:
Type in all cases: cell-based, human
[1] = tested on: HL-60; assay: CellTiter-Glo (CTG) cell proliferation assay, 72 hours
Method: (§1) Preparation of Solutions of Test Article: Compounds were plated into black 384-well plates (Corning Inc.) to a final DMSO volume of 0.1% assuming a maximal volume of 50 μL. A 10-point dose response starting at 10 μM with a 1:3 dilution was printed in duplicate by acoustic dispense using the EDC ATS-100 platform.
(§2) Cell Proliferation Assays: The effect of Compound 1 on the proliferation/viability of the hematological cell lines (Table 1 Table, Table 2 and Table 3), THLE-2, or PBMCs was assessed after 72 hours incubation using CTG (Promega), according to manufacturer's instructions. Hematological cell lines were dispensed into compound plates by a Multidrop™ Combi Reagent Dispenser (Thermo Scientific, Waltham, Mass.) at a concentration of 0.1 to 0.3×10^6 cells per mL in a 50 μL total volume. THLE-2 cells were seeded out at 1000 cells per well in 50 μL volume and incubated for 72 hours. At 72 hours, 25 μL per well of CTG was dispensed by a Multidrop™ Combi Reagent Dispenser and adenosine triphosphate (ATP) release by viable cells was measured as relative luminescence units after 30 minutes using the Envision platform.
(§3) Proliferation was assessed using the CellTitre-Glo® assay. Results for cultures incubated with Compound 1 were normalized to results for control cultures for each cell line. The IC50 for inhibition of cell growth by Compound 1 was determined for each cell line using ActivityBase software.
(§4) Cultures of 11 different AML cell lines were incubated 72 hours with Compound 1 at concentrations of 0.5 nM to 10 μM. Proliferation was assessed using the CellTitre-Glo® assay. Results for cultures incubated with Compound 1 were normalized to results for control cultures for each cell line. Inhibition of cell growth was also determined in THLE-2 cells at Compound 1 concentrations of 0.1 nM to 100 μM and in PBMCs at Compound 1 concentrations of 0.5 nM to […]. The Compound 1 therapeutic window was calculated using area under the curve (AUC; Activity Area [Barretina et al, Nature (2012) 483603-607] measurements (in arbitrary units) as determined using GraphPad Prism software for plots of cell proliferation vs concentration and dividing the AUC for the immortalized (but nontumorigenic) human THLE-2 hepatocyte cell line or PBMCs by the AUC for the AML cell line.

[2] = tested on: HNT-34; assay: as above; details: for IC50: Homo sapiens
Method: as §1, §2, §3, §4

[3] = tested on: KG-1a; assay: as above
Method: as §1, §2, §3, §4

[4] = tested on: KG-1; assay: as above
Method: as §1, §2, §3, §4

[5] = tested on: Kasumi-1; assay: as above
Method: as §1, §2, §3, §4

[6] = tested on: MOLM-13; assay: as above
Method: as §1, §2, §3, §4

[7] = tested on: MV-4-11; assay: as above
Method: as §1, §2, §3, §4

[8] = tested on: NB-4; assay: as above
Method: as §1, §2, §3, §4

[9] = tested on: OCI-AML2; assay: as above
Method: as §1, §2, §3, §4

[10] = tested on: OCI-AML3; assay: as above; details: for IC50: liquid culture
Method: as §1, §2, §3, §4

[11] = tested on: U-937; assay: as above
Method: as §1, §2, §3, §4

[12] = tested on: HNT-34 cells and PBMCs; assay: JC-1 mitochondrial membrane potential assay; details: HNT-34 cells over non-pre-activated PBMCs; 0.1 μM Compound 1; 72 hours
[13] = HL-60, AUC PBMCs divided by AUC AML cell line
[14] = HL-60, AUC THLE-2 divided by AUC AML cell line
[15] = HNT-34, AUC PBMCs divided by AUC AML cell line
[16] = HNT-34, AUC THLE-2 divided by AUC AML cell line
[17] = AUC PBMCs divided by AUC AML cell line
[18] = AUC THLE-2 divided by AUC AML cell line
[19] = KG-1, AUC PBMCs divided by AUC AML cell line
[20] = KG-1, AUC THLE-2 divided by AUC AML cell line
[21] = Kasumi-1, AUC PBMCs divided by AUC AML cell line
[22] = Kasumi-1, AUC THLE-2 divided by AUC AML cell line
[23] = MOLM-13, AUC PBMCs divided by AUC AML cell line
[24] = MOLM-13, AUC THLE-2 divided by AUC AML cell line
[25] = MV-4-11, AUC PBMCs divided by AUC AML cell line
[26] = MV-4-11, AUC THLE-2 divided by AUC AML cell line
[27] = NB-4, AUC PBMCs divided by AUC AML cell line
[28] = NB-4, AUC THLE-2 divided by AUC AML cell line
[29] = OCI-AML2, AUC PBMCs divided by AUC AML cell line
[30] = OCI-AML2, AUC THLE-2 divided by AUC AML cell line
[31] = OCI-AML3, AUC PBMCs divided by AUC AML cell line
[32] = OCI-AML3, AUC THLE-2 divided by AUC AML cell line
[33] = U-937, AUC PBMCs divided by AUC AML cell line
[34] = U-937, AUC THLE-2 divided by AUC AML cell line

O=C1CCC(N2Cc3cc(CNC(=O)C(F)(F)c4ccc(Cl)cc4)ccc3C2=O)C(=O)N1 (stereo not drawn) [Compound 1, 2-(4-chlorophenyl)-N-((2-(2,6-dioxopiperidin-3-yl)-1-oxoisoindolin-5-yl)methyl)-2,2-difluoroacetamide]
Therapeutic Window Method 1 As Compared with PBMCs [1, 13]: 11
Therapeutic Window Method 2 As Compared with PBMCs [1, 13]: 6.1
Therapeutic Window Method 1 As Compared with THLE-2 Cells [1, 14]: 17
Therapeutic Window Method 2 As Compared with THLE-2 Cells [1, 14]: 23.2
AUC ([1]; HL-60, Activity Area of proliferation vs concentration, 72 hours, 0.5 nM to 10 μM): 23.7 arbitrary units
IC50 ([1]; Homo sapiens, HL-60, 72 h, read-out: Proliferation IC50 (mean ± SD)): 20 ± 10 nM
Therapeutic Window Method 1 As Compared with PBMCs [2, 15]: 36
Therapeutic Window Method 2 As Compared with PBMCs [2, 15]: 21
Therapeutic Window Method 1 As Compared with THLE-2 Cells [2, 16]: 57
Therapeutic Window Method 2 As Compared with THLE-2 Cells [2, 16]: 79.5
AUC ([2]; HNT-34, Activity Area of proliferation vs concentration, 72 hours, 0.5 nM to 10 μM): 6.9 arbitrary units
IC50 ([2]; HNT-34, 72 h, read-out: Proliferation IC50 (mean ± SD)): 3 ± 1 nM
IC50 ([2]; HNT-34 as sensitive positive control cell line in PBMC comparison, 72 hours, read-out: CTG IC50): 2 nM
Therapeutic Window Method 1 As Compared with PBMCs [3, 17]: 2.6
Therapeutic Window Method 2 As Compared with PBMCs [3, 17]: 1.5
Therapeutic Window Method 1 As Compared with THLE-2 Cells [3, 18]: 4.1
Therapeutic Window Method 2 As Compared with THLE-2 Cells [3, 18]: 5.7
AUC ([3]; Activity Area of proliferation vs concentration, 72 hours, 0.5 nM to 10 μM): 96.9 arbitrary units
IC50 ([3]; Homo sapiens, 72 h, read-out: Proliferation IC50 (mean ± SD)): 21 ± 10 nM
IC50 ([4]; Homo sapiens, KG-1, 72 h, read-out: Proliferation IC50 (mean ± SD)): 15 ± 6 nM
Therapeutic Window Method 1 As Compared with PBMCs [4, 19]: 3.8
Therapeutic Window Method 2 As Compared with PBMCs [4, 19]: 2.2
Therapeutic Window Method 1 As Compared with THLE-2 Cells [4, 20]: 6.0
Therapeutic Window Method 2 As Compared with THLE-2 Cells [4, 20]: 8.3
AUC ([4]; KG-1, Activity Area of proliferation vs concentration, 72 hours, 0.5 nM to 10 μM): 65.8 arbitrary units
IC50 ([5]; Homo sapiens, Kasumi 1, 72 h, read-out: Proliferation IC50 (mean ± SD)): 21 ± 13 nM
Therapeutic Window Method 1 As Compared with PBMCs [5, 21]: 6.6
Therapeutic Window Method 2 As Compared with PBMCs [5, 21]: 3.8
Therapeutic Window Method 1 As Compared with THLE-2 Cells [5, 22]: 10
Therapeutic Window Method 2 As Compared with THLE-2 Cells [5, 22]: 14.5
AUC ([5]; Kasumi-1, Activity Area of proliferation vs concentration, 72 hours, 0.5 nM to 10 μM): 37.9 arbitrary units
IC50 ([6]; Homo sapiens, MOLM-13, 72 h, read-out: Proliferation IC50 (mean ± SD)): 75 ± 33 nM
Therapeutic Window Method 1 As Compared with PBMCs [6, 23]: 6.3
Therapeutic Window Method 2 As Compared with PBMCs [6, 23]: 3.7
Therapeutic Window Method 1 As Compared with THLE-2 Cells [6, 24]: 9.9
Therapeutic Window Method 2 As Compared with THLE-2 Cells [6, 24]: 13.9
AUC ([6]; MOLM-13, Activity Area of proliferation vs concentration, 72 hours, 0.5 nM to 10 μM): 39.6 arbitrary units
IC50 ([7]; Homo sapiens, MV4-11, 72 h, read-out: Proliferation IC50 (mean ± SD)): 29 ± 10 nM
Therapeutic Window Method 1 As Compared with PBMCs [7, 25]: 12
Therapeutic Window Method 2 As Compared with PBMCs [7, 25]: 7.1
Therapeutic Window Method 1 As Compared with THLE-2 Cells [7, 26]: 19
Therapeutic Window Method 2 As Compared with THLE-2 Cells [7, 26]: 26.8
AUC ([7]; MV-4-11, Activity Area of proliferation vs concentration, 72 hours, 0.5 nM to 10 μM): 20.5 arbitrary units
IC50 ([8]; Homo sapiens, NB-4, 72 h, read-out: Proliferation IC50 (mean ± SD)): 17 ± 5 nM
Therapeutic Window Method 1 As Compared with PBMCs [8, 27]: 17
Therapeutic Window Method 2 As Compared with PBMCs [8, 27]: 10.1
Therapeutic Window Method 1 As Compared with THLE-2 Cells [8, 28]: 27
Therapeutic Window Method 2 As Compared with THLE-2 Cells [8, 28]: 38.1
AUC ([8]; NB-4, Activity Area of proliferation vs concentration, 72 hours, 0.5 nM to 10 μM): 14.4 arbitrary units
IC50 ([9]; Homo sapiens, OCI-AML2, 72 h, read-out: Proliferation IC50 (mean ± SD)): 57 ± 21 nM
Therapeutic Window Method 1 As Compared with PBMCs [9, 29]: 14
Therapeutic Window Method 2 As Compared with PBMCs [9, 29]: 8.1
Therapeutic Window Method 1 As Compared with THLE-2 Cells [9, 30]: 22
Therapeutic Window Method 2 As Compared with THLE-2 Cells [9, 30]: 30.7
AUC ([9]; OCI-AML2, Activity Area of proliferation vs concentration, 72 hours, 0.5 nM to 10 μM): 17.9 arbitrary units
IC50 ([10]; Homo sapiens, OCI-AML-3, 72 h, read-out: Proliferation IC50 (mean ± SD), OCI-AML3, 72 hours): 3 µM
Therapeutic Window Method 1 As Compared with PBMCs [10, 31]: 0.45
Therapeutic Window Method 2 As Compared with PBMCs [10, 31]: 0.3
Therapeutic Window Method 1 As Compared with THLE-2 Cells [10, 32]: 0.70
Therapeutic Window Method 2 As Compared with THLE-2 Cells [10, 32]: 1.0
AUC ([10]; OCI-AML3, Activity Area of proliferation vs concentration, 72 hours, 0.5 nM to 10 μM): 563.0 arbitrary units
IC50 ([10]; read-out: Proliferation IC50 (mean ± SD), OCI-AML3, 72 hours): 3.4 ± 3.33 µM
IC50 ([11]; Homo sapiens, U-937, 72 h, read-out: Proliferation IC50 (mean ± SD)): 74 ± 25 nM
Therapeutic Window Method 1 As Compared with PBMCs [11, 33]: 6.3
Therapeutic Window Method 2 As Compared with PBMCs [11, 33]: 3.6
Therapeutic Window Method 1 As Compared with THLE-2 Cells [11, 34]: 9.8
Therapeutic Window Method 2 As Compared with THLE-2 Cells [11, 34]: 13.7
AUC ([11]; U-937, Activity Area of proliferation vs concentration, 72 hours, 0.5 nM to 10 μM): 40.0 arbitrary units
difference in increase of membrane depolarization [12]: ~7 fold
